From patent publication US12004506B2, “Pharmaceutical composition comprising a cyclic peptide of formula X1-[sequence]-X2 and use for extracorporeal lung treatment” (priority 2013, dated 2024)

How the values were obtained:
transplanted pig lung = assay: Re-implantation of pre-treated non-ischemic donor lungs in recipient pigs; format: in vivo; conditions: nebulisation 1 mg/kg, 24 h evaluation
Method: After the pre-treatment of the non-ischemic donor lungs with peptide SEQ ID NO:1 from Example 4 the lungs were re-implanted in recipient pigs. Shortly after reperfusion of the transplanted lungs peptide SEQ ID NO: 1 was administered.
A left thoracotomy through the sixth inter costal space was done, the left hilus was prepared. The hemiazygos vein on the left side was dissected and transected, as it is hiding both the left pulmonary artery and the left atrium. After dissection the ligated ends can be pulled to facilitate exposure of the OP field. The […] and bronchus are encircled. Left pneumonectomy was performed using vascular clamps. Immediately before the implantation single intravenous dose of methylprednisolone (500-1000 mg) and a low dose of heparin (100 IU/kg, see above) was applied. The donor lung was then reimplanted using 4-0 PDS for the bronchial anastomosis and 5-0 Prolene for the pulmonary artery and the left atrial anastomosis. In pigs, there is an additional lobe (caval lobe) of the right lung with 2 veins into the left atrium (1 separate vein for the caval lobe, 1 additional vein arising from the trunk of the main right lower lobe vein). […]
The left donor lung was evaluated for an additional period of 24 hours.
The following parameters have been assessed:
Functional assessment of graft function by oxygenation parameters: Arterial blood gas analyses as well as selective blood gas analysis from the left pulmonary veins were performed every 2 hours for 24 h. The respiratory index was calculated: RI=PaO2/FiO2.
Lung compliance was calculated from the pressure and volume data of the anesthesia ventilator. […]
Functional assessment of graft function by hemodynamic measurements (on-line measurements) and pulmonary vascular resistance (PVR): Hemodynamics, including pulmonary artery pressure (PAP) was measured continuously. Cardiac output (CO) was measured by using a Swan-Ganz catheter. Pulmonary vascular resistance is calculated by the following formula: PVR (dynes·[…]·cm−5)=(PAP−LAP)×80/CO.

[1] = system: sodium ion current in A549 cells (deglycosylated cell surface); assay: Patch clamp assay, whole cell mode, on A549 cells deglycosylated with PNGase F; format: cell-based, human; conditions: 240 nM peptide, Eh -100 mV

C[C@@H]1NC(=O)CNC(=O)[C@H](CCC(=O)O)NC(=O)[C@@H]2CCCN2C(=O)[C@H]([C@@H](C)O)NC(=O)[C@H](CCC(=O)O)NC(=O)[C@H](CCCNC(=N)N)NC(=O)[C@H](CCC(N)=O)NC(=O)CNC(=O)[C@@H](N)CSSC[C@@H](C(=O)O)NC(=O)[C@H](Cc2ccc(O)cc2)NC(=O)[C@H](Cc2c[nH]c3ccccc23)NC(=O)[C@@H]2CCCN2C(=O)[C@H](CCCCN)NC(=O)[C@H](C)NC(=O)[C@H](CCC(=O)O)NC1=O [SEQ ID NO: 1]
development of lung oedema (transplanted pig lung): reduced | initial graft function and gas exchange (transplanted pig lung): improved | rate of ischemia reperfusion injury induced malfunction of the transplanted lung (transplanted pig lung): reduced | Whole cell current, no pre-treatment with PNGase F [1]: 1073.3 ± 15.1 pA
